# Species on record: Rattus norvegicus
# Experiment: DrugMatrix - Regimen: Daily Repeat
# Assay type: toxicity, organism-based, Sprague-Dawley
# Set-up: regimen Daily Repeat, gender Male, age 6-8 weeks
# Conditions: in vivo, po, route oral GAVAGE, […]; for BASOPHIL / EOSINOPHIL / ERYTHROCYTE COUNT / HEMATOCRIT / HEMOGLOBIN / LEUKOCYTE COUNT / LYMPHOCYTE / MEAN CORPUSCULAR HEMOGLOBIN / MEAN CORPUSCULAR HEMOGLOBIN CONCENTRATION / MEAN CORPUSCULAR VOLUME / MONOCYTE / NEUTROPHIL / PLATELET COUNT / ABSOLUTE BASOPHIL / ABSOLUTE EOSINOPHIL / ABSOLUTE LYMPHOCYTE / ABSOLUTE MONOCYTE / ABSOLUTE SEGMENTED NEUTROPHIL / NUCLEATED RED BLOOD CELLS: tissue Blood; for ALANINE AMINOTRANSFERASE / ALBUMIN / ALKALINE PHOSPHATASE / ASPARTATE AMINOTRANSFERASE / BLOOD UREA NITROGEN / CHLORIDE / CHOLESTEROL / CREATINE PHOSPHOKINASE / CREATININE / GLUCOSE / PHOSPHORUS / POTASSIUM / SODIUM / TOTAL BILIRUBIN / TOTAL PROTEIN / CARBON DIOXIDE / LACTATE DEHYDROGENASE / LIPASE / URIC ACID: tissue Plasma
# [1] = 0 mg/kg, 120 h, dose level Control, time 5 day
# [2] = 0 mg/kg, dose level Control, time 28 day
# [3] = 11 mg/kg, 72 h, dose level High, time 3 day
# [4] = 11 mg/kg, 120 h, dose level High, time 5 day
smiles,measurement,setting,value
O=[N+]([O-])c1cc([As](=O)(O)O)ccc1O [ROXARSONE],BASOPHIL,[1],0.32%
same,EOSINOPHIL,[1],0.58%
same,ERYTHROCYTE COUNT,[1],7.26 x10E6/uL
same,HEMATOCRIT,[1],46.94%
same,HEMOGLOBIN,[1],14.9 G/DL
same,LEUKOCYTE COUNT,[1],8.69 x10E3/uL
same,LYMPHOCYTE,[1],81.52%
same,MEAN CORPUSCULAR HEMOGLOBIN,[1],20.58 pg
same,MEAN CORPUSCULAR HEMOGLOBIN CONCENTRATION,[1],31.8 G/DL
same,MEAN CORPUSCULAR VOLUME,[1],64.68 fL
same,MONOCYTE,[1],2.16%
same,NEUTROPHIL,[1],13.88%
same,PLATELET COUNT,[1],1531.2 x10E3/uL
same,ALANINE AMINOTRANSFERASE,[1],33.2 u/L
same,ALBUMIN,[1],3.74 G/DL
same,ALKALINE PHOSPHATASE,[1],318 u/L
same,ASPARTATE AMINOTRANSFERASE,[1],78.6 u/L
same,BLOOD UREA NITROGEN,[1],6 mg/dL
same,CHLORIDE,[1],108.4 MEQ/L
same,CHOLESTEROL,[1],63 mg/dL
same,CREATINE PHOSPHOKINASE,[1],251 u/L
same,CREATININE,[1],0.18 mg/dL
same,GLUCOSE,[1],125.6 mg/dL
same,PHOSPHORUS,[1],12.06 mg/dL
same,POTASSIUM,[1],5.92 MEQ/L
same,SODIUM,[1],146.8 MEQ/L
same,TOTAL BILIRUBIN,[1],0.16 mg/dL
same,TOTAL PROTEIN,[1],6.06 G/DL
same,BASOPHIL,[2],0.42%
same,EOSINOPHIL,[2],0.58%
same,ERYTHROCYTE COUNT,[2],8.06 x10E6/uL
same,HEMATOCRIT,[2],48.44%
same,HEMOGLOBIN,[2],16.34 G/DL
same,LEUKOCYTE COUNT,[2],13.04 x10E3/uL
same,LYMPHOCYTE,[2],85.12%
same,MEAN CORPUSCULAR HEMOGLOBIN,[2],20.26 pg
same,MEAN CORPUSCULAR HEMOGLOBIN CONCENTRATION,[2],33.74 G/DL
same,MEAN CORPUSCULAR VOLUME,[2],60.1 fL
same,MONOCYTE,[2],1.44%
same,NEUTROPHIL,[2],11.28%
same,PLATELET COUNT,[2],1226 x10E3/uL
same,ALANINE AMINOTRANSFERASE,[2],28.6 u/L
same,ALBUMIN,[2],3.94 G/DL
same,ALKALINE PHOSPHATASE,[2],254.6 u/L
same,ASPARTATE AMINOTRANSFERASE,[2],67.8 u/L
same,BLOOD UREA NITROGEN,[2],10.4 mg/dL
same,CHLORIDE,[2],104.6 MEQ/L
same,CHOLESTEROL,[2],57.6 mg/dL
same,CREATINE PHOSPHOKINASE,[2],224.8 u/L
same,CREATININE,[2],0.4 mg/dL
same,GLUCOSE,[2],140.6 mg/dL
same,PHOSPHORUS,[2],10.66 mg/dL
same,POTASSIUM,[2],6.58 MEQ/L
same,SODIUM,[2],148.6 MEQ/L
same,TOTAL BILIRUBIN,[2],0.24 mg/dL
same,TOTAL PROTEIN,[2],6.64 G/DL
same,ABSOLUTE BASOPHIL,[3],0 CELLS/uL
same,ABSOLUTE EOSINOPHIL,[3],38.67 CELLS/uL
same,ABSOLUTE LYMPHOCYTE,[3],12107.67 CELLS/uL
same,ABSOLUTE MONOCYTE,[3],206 CELLS/uL
same,ABSOLUTE SEGMENTED NEUTROPHIL,[3],1247.67 CELLS/uL
same,BASOPHIL,[3],0%
same,EOSINOPHIL,[3],0.33%
same,ERYTHROCYTE COUNT,[3],6.03 x10E6/uL
same,HEMATOCRIT,[3],38.2%
same,HEMOGLOBIN,[3],14.6 G/DL
same,LEUKOCYTE COUNT,[3],13.6 x10E3/uL
same,LYMPHOCYTE,[3],89%
same,MEAN CORPUSCULAR HEMOGLOBIN,[3],24.2 pg
same,MEAN CORPUSCULAR HEMOGLOBIN CONCENTRATION,[3],38.2 G/DL
same,MEAN CORPUSCULAR VOLUME,[3],63.27 fL
same,MONOCYTE,[3],1.67%
same,NEUTROPHIL,[3],9%
same,NUCLEATED RED BLOOD CELLS,[3],0 /100WBC
same,PLATELET COUNT,[3],1141 x10E3/uL
same,ALANINE AMINOTRANSFERASE,[3],88 u/L
same,ALBUMIN,[3],3.93 G/DL
same,ALKALINE PHOSPHATASE,[3],483.33 u/L
same,ASPARTATE AMINOTRANSFERASE,[3],108 u/L
same,BLOOD UREA NITROGEN,[3],10.67 mg/dL
same,CARBON DIOXIDE,[3],29.33 mmol/L
same,CHLORIDE,[3],100.67 MEQ/L
same,CHOLESTEROL,[3],66.67 mg/dL
same,CREATINE PHOSPHOKINASE,[3],464.67 u/L
same,CREATININE,[3],0.15 mg/dL
same,GLUCOSE,[3],142.67 mg/dL
same,LACTATE DEHYDROGENASE,[3],448 u/L
same,LIPASE,[3],11.67 u/L
same,PHOSPHORUS,[3],11.03 mg/dL
same,POTASSIUM,[3],6.34 MEQ/L
same,SODIUM,[3],143.37 MEQ/L
same,TOTAL BILIRUBIN,[3],0.2 mg/dL
same,TOTAL PROTEIN,[3],5.6 G/DL
same,URIC ACID,[3],1.6 mg/dL
same,ABSOLUTE BASOPHIL,[4],0 CELLS/uL
same,ABSOLUTE EOSINOPHIL,[4],0 CELLS/uL
same,ABSOLUTE LYMPHOCYTE,[4],14104 CELLS/uL
same,ABSOLUTE MONOCYTE,[4],363 CELLS/uL
same,ABSOLUTE SEGMENTED NEUTROPHIL,[4],1099.67 CELLS/uL
same,NUCLEATED RED BLOOD CELLS,[4],0 /100WBC
same,CARBON DIOXIDE,[4],29.67 mmol/L
same,LACTATE DEHYDROGENASE,[4],358.67 u/L
same,LIPASE,[4],11.33 u/L
same,URIC ACID,[4],1.37 mg/dL
